Assays:
Experiment in all cases: relative viability (nuclei count vs DMSO), 5 days (fraction); higher = more cells survive
201T = system: 201T
How it was run: (§1)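 Relative viability divides the nuclei count in treated wells by that in vehicle wells. Lung cancer cell lines were seeded in 1536-well plates, dosed by pin tool the next day, and fixed and stained after 5 days in one step with final 0.05% Triton X-100, 1% formaldehyde and 1 ug/ml Hoechst. Dosing was a single drug or a fixed anchor-drug dose plus five library-drug doses (not always all listed) in √10 steps, and values are medians of duplicate plates imaged at 4×.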

ABC-1 = system: ABC-1
How it was run: as §1

BEN = system: BEN
How it was run: as §1

CAL-12T = system: CAL-12T
How it was run: as §1

COR-L 105 = system: COR-L 105
How it was run: as §1

EKVX = system: EKVX
How it was run: as §1

EMC-BAC-2 = system: EMC-BAC-2
How it was run: as §1

HCC-15 = system: HCC-15
How it was run: as §1

HCC-44 = system: HCC-44
How it was run: as §1

LK-2 = system: LK-2
How it was run: as §1

LU99A = system: LU99A
How it was run: as §1

NCI-H1651 = system: NCI-H1651
How it was run: as §1

NCI-H2023 = system: NCI-H2023
How it was run: as §1

NCI-H322M = system: NCI-H322M
How it was run: as §1

NCI-H358 = system: NCI-H358
How it was run: as §1

NCI-H460 = system: NCI-H460
How it was run: as §1

NCI-H520 = system: NCI-H520
How it was run: as §1

NCI-H522 = system: NCI-H522
How it was run: as §1

NCI-H727 = system: NCI-H727
How it was run: as §1

NCI-H838 = system: NCI-H838
How it was run: as §1

PC-3 [JPC-3] = system: PC-3 [JPC-3]
How it was run: as §1

SW 900 = system: SW 900
How it was run: as §1

Structure (SMILES): CN1CCN(CCOc2cc(OC3CCOCC3)c3c(Nc4c(Cl)ccc5c4OCO5)ncnc3c2)CC1 [Saracatinib] + O=C(c1cc(Cc2n[nH]c(=O)c3ccccc23)ccc1F)N1CCN(C(=O)C2CC2)CC1 [Olaparib] (partner 8 µM)
- relative viability (201T; first compound 0.02 µM): 0.913
- relative viability (201T; first compound 0.2 µM): 0.595
- relative viability (201T; first compound 0.6325 µM): 0.775
- relative viability (201T; first compound 2 µM): 0.665
- relative viability (ABC-1; first compound 0.02 µM): 0.568
- relative viability (ABC-1; first compound 0.2 µM): 0.941
- relative viability (ABC-1; first compound 0.6325 µM): 0.706
- relative viability (ABC-1; first compound 2 µM): 0.751
- relative viability (BEN; first compound 0.02 µM): 1.15
- relative viability (BEN; first compound 0.2 µM): 0.922
- relative viability (BEN; first compound 0.6325 µM): 1.15
- relative viability (BEN; first compound 2 µM): 0.794
- relative viability (CAL-12T; first compound 0.02 µM): 0.787
- relative viability (CAL-12T; first compound 0.2 µM): 0.682
- relative viability (CAL-12T; first compound 0.6325 µM): 0.825
- relative viability (CAL-12T; first compound 2 µM): 0.701
- relative viability (COR-L 105; first compound 0.02 µM): 0.594
- relative viability (COR-L 105; first compound 0.2 µM): 0.617
- relative viability (COR-L 105; first compound 0.6325 µM): 0.698
- relative viability (COR-L 105; first compound 2 µM): 0.698
- relative viability (EKVX; first compound 0.02 µM): 0.704
- relative viability (EKVX; first compound 0.6325 µM): 0.91
- relative viability (EKVX; first compound 2 µM): 0.38
- relative viability (EMC-BAC-2; first compound 0.02 µM): 0.489
- relative viability (EMC-BAC-2; first compound 0.2 µM): 0.418
- relative viability (EMC-BAC-2; first compound 0.6325 µM): 0.562
- relative viability (EMC-BAC-2; first compound 2 µM): 0.474
- relative viability (HCC-15; first compound 0.02 µM): 0.717
- relative viability (HCC-15; first compound 0.2 µM): 0.634
- relative viability (HCC-15; first compound 0.6325 µM): 0.79
- relative viability (HCC-15; first compound 2 µM): 0.752
- relative viability (HCC-44; first compound 0.02 µM): 0.979
- relative viability (HCC-44; first compound 0.2 µM): 0.863
- relative viability (HCC-44; first compound 0.6325 µM): 0.97
- relative viability (HCC-44; first compound 2 µM): 0.976
- relative viability (LK-2; first compound 0.02 µM): 0.802
- relative viability (LK-2; first compound 0.2 µM): 0.505
- relative viability (LK-2; first compound 0.6325 µM): 0.437
- relative viability (LK-2; first compound 2 µM): 0.388
- relative viability (LU99A; first compound 0.02 µM): 0.278
- relative viability (LU99A; first compound 0.2 µM): 0.194
- relative viability (LU99A; first compound 0.6325 µM): 0.282
- relative viability (LU99A; first compound 2 µM): 0.256
- relative viability (NCI-H1651; first compound 0.02 µM): 0.191
- relative viability (NCI-H1651; first compound 0.2 µM): 0.16
- relative viability (NCI-H1651; first compound 0.6325 µM): 0.162
- relative viability (NCI-H1651; first compound 2 µM): 0.165
- relative viability (NCI-H2023; first compound 0.02 µM): 0.503
- relative viability (NCI-H2023; first compound 0.6325 µM): 0.417
- relative viability (NCI-H2023; first compound 2 µM): 0.393
- relative viability (NCI-H322M; first compound 0.02 µM): 0.769
- relative viability (NCI-H322M; first compound 0.2 µM): 0.492
- relative viability (NCI-H322M; first compound 0.6325 µM): 0.636
- relative viability (NCI-H322M; first compound 2 µM): 0.402
- relative viability (NCI-H358; first compound 0.02 µM): 0.527
- relative viability (NCI-H358; first compound 0.2 µM): 0.529
- relative viability (NCI-H358; first compound 0.6325 µM): 0.272
- relative viability (NCI-H358; first compound 2 µM): 0.324
- relative viability (NCI-H460; first compound 0.02 µM): 0.416
- relative viability (NCI-H460; first compound 0.2 µM): 0.285
- relative viability (NCI-H460; first compound 0.6325 µM): 0.423
- relative viability (NCI-H460; first compound 2 µM): 0.409
- relative viability (NCI-H520; first compound 0.02 µM): 0.354
- relative viability (NCI-H520; first compound 0.2 µM): 0.327
- relative viability (NCI-H520; first compound 0.6325 µM): 0.289
- relative viability (NCI-H520; first compound 2 µM): 0.243
- relative viability (NCI-H522; first compound 0.02 µM): 0.679
- relative viability (NCI-H522; first compound 0.2 µM): 0.59
- relative viability (NCI-H522; first compound 0.6325 µM): 0.572
- relative viability (NCI-H522; first compound 2 µM): 0.534
- relative viability (NCI-H727; first compound 0.02 µM): 0.687
- relative viability (NCI-H727; first compound 0.2 µM): 0.51
- relative viability (NCI-H727; first compound 0.6325 µM): 0.534
- relative viability (NCI-H727; first compound 2 µM): 0.578
- relative viability (NCI-H838; first compound 0.02 µM): 0.776
- relative viability (NCI-H838; first compound 0.2 µM): 0.643
- relative viability (NCI-H838; first compound 0.6325 µM): 0.656
- relative viability (NCI-H838; first compound 2 µM): 0.505
- relative viability (PC-3 [JPC-3]; first compound 0.02 µM): 1.19
- relative viability (PC-3 [JPC-3]; first compound 0.2 µM): 0.993
- relative viability (PC-3 [JPC-3]; first compound 0.6325 µM): 0.746
- relative viability (PC-3 [JPC-3]; first compound 2 µM): 0.55
- relative viability (SW 900; first compound 0.02 µM): 0.831
- relative viability (SW 900; first compound 0.2 µM): 0.753
- relative viability (SW 900; first compound 0.6325 µM): 0.784
- relative viability (SW 900; first compound 2 µM): 0.643
